In patent US20030143757A1, “Methods for identifying drug cores” (priority 1997, published 2003):

Target: p38 MAP kinase (Homo sapiens, UniProt Q16539)
Conditions: 1 mM each drug core, 0.2 mM p38 MAP kinase, 5° C., pD* 8.4, relaxation filter
Description: All the spectra were acquired at 5° C. using a Bruker DMX 500 MHz NMR spectrometer. NOESY spectra were collected using 16 transients with 2048 points in ω2 and 400 points in ω1 and a mixing time of 400 ms for the drug core mixture in the absence of target and 100 ms for the drug core mixture in the presence of p38. A spin echo with an echo delay of 5 ms was used as a relaxation filter before the t1 evolution period in all experiments. Samples contained 1 mM of each drug core, 0.2 mM p38 MAP kinase, 25 mM deutero-Tris, 10% (v/v) deutero-glycerol, 20 mM deutero-dithiothreitol at pD*=8.4.

Sequence of p38 MAP kinase (Q16539 whole entry): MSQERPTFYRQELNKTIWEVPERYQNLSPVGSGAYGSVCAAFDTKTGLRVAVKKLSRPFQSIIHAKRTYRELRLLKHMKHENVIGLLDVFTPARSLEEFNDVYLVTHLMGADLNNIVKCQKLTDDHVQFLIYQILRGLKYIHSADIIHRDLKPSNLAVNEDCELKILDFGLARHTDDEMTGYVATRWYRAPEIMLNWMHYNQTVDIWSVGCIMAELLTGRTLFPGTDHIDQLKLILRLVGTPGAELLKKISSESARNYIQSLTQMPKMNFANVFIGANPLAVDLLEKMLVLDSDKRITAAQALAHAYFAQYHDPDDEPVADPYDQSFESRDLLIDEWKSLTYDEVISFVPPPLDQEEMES

- binding to p38 MAP kinase by line broadening and peak height attenuation in 1D NMR: does not
Compound: O=C(O)c1cccnc1 [nicotinic acid]
